The record followed here is ChEMBL document CHEMBL5252612, “A novel selective estrogen receptor degrader induces cell cycle arrest in breast cancer via ERα degradation and the autophagy-lysosome pathway” (Bioorg Med Chem, 2023).

Test [1] concerns T47D. In words: Induction of cell cycle arrest in human T47D cells assessed as proportion of cells at G1 phase at 10 uM incubated for 24 hrs in presence of autophagy inhibitor, 3-MA by flow cytometry (reference value: 58.3%). In kind it is functional.
The test system of test [2] is MCF7. Description: Inhibition of colony formation in human MCF7 cells at 1 to 10 uM incubated for 14 days by crystal violet staining based analysis. In kind it is functional, cell-based. To be noted: dose 1-10 µM, time 14.0 day.
The subject of test [3] is T47D. In words: Induction of cell cycle arrest in human T47D cells transfected with empty vector assessed as proportion of cells at G1 phase at 10 uM incubated for 24 hrs by flow cytometry (reference value: 17.1%). The test is classed as functional. (Flow cytometry measures light scatter and fluorescence of single cells or particles in a stream.)
For test [4], the system named is T47D. Description: Anticancer activity against ER-alpha positive human T47D cells assessed as reduction in cell viability measured after 48 hrs by CCK8 assay. In kind it is functional, cell-based.
Test [5] has as its system T47D. Description: Induction of cell cycle arrest in human T47D cells assessed as proportion of cells at G2 phase at 10 uM incubated for 24 hrs in presence of autophagy inhibitor, 3-MA by flow cytometry (reference value: 18.2%). The test is classed as functional.
Test [6] deals with T47D. Description: Induction of cell cycle arrest in human T47D cells assessed as proportion of cells at G1 phase at 5 uM incubated for 24 hrs by flow cytometry (reference value: 66.6%). The test is classed as functional.
Test [7] relates to T47D. Description: Inhibition of colony formation in human T47D cells at 10 uM incubated for 14 days in presence of autophagy inhibitor, 3-MA by crystal violet staining based analysis. The test is classed as functional, cell-based. To be noted: time 14.0 day.
Test [8] deals with T47D. Description: Induction of apoptosis and necrosis in human T47D cells incubated for 48 hrs by AnnexinV-FITC/PI staining based flow cytometry (reference value: 3.73%). The test is classed as functional.
Test [9] relates to T47D. Description: Induction of autophagy in human T47D cells assessed as increase in LC3 puncta formation at 1 to 10 uM incubated for 24 hrs in presence of chloroquine by immunofluorescence assay. The test is classed as functional, cell-based. To be noted: dose 1-10 µM.
Test [10] deals with MCF7. In words: Induction of cell cycle arrest in human MCF7 cells assessed as proportion of cells at S phase at 5 uM incubated for 24 hrs by flow cytometry (reference value: 27.6%). The test is classed as functional.
Test [11] relates to T47D. Description: Induction of autophagy in human T47D cells assessed as downregulation of MYC protein expression at 5 to 10 uM incubated for 24 hrs in presence of autophagy inhibitor, CQ by western blot analysis. As to conditions: dose 5-10 µM. In kind it is functional, cell-based.
For test [12], the system named is MCF7. In words: Induction of apoptosis and necrosis in human MCF7 cells assessed as live cells at 10 uM incubated for 48 hrs by AnnexinV-FITC/PI staining based flow cytometry (reference value: 92.97%). The test is classed as functional.
Test [13] has as its system T47D. Description: Induction of autophagy in human T47D cells overexpressing ESR1 assessed as increase in LC3 protein expression by western blot analysis. The test is classed as functional, cell-based.
For test [14], the system named is T47D. Description: Inhibition of colony formation in human T47D cells at 1 to 5 uM incubated for 14 days by crystal violet staining based analysis. In kind it is functional, cell-based. To be noted: dose 1-5 µM, time 14.0 day.
Test [15] is described as follows: Induction of cell cycle arrest in tamoxifen-resistant human LCC2 cells assessed as proportion of cells at G2 phase at 10 uM by flow cytometry (reference value: 23.7%). In kind it is functional.
Test [16] concerns T47D. In words: Induction of cell cycle arrest in human T47D cells assessed as proportion of cells at G2 phase at 10 uM incubated for 24 hrs by flow cytometry (reference value: 17%). The test is classed as functional.
Test [17] relates to MCF7. Description: Antitumor activity against human MCF7 cells xenografted in BALB/c nude mouse assessed as reduction in tumor volume at 2 to 4 mg/kg, ip administered every other day by caliper analysis. In kind it is functional, organism-based. As to conditions: dose 2-4 mg/kg. In general terms: Xenograft models place foreign cells or tissue in a host animal.
Test [18] relates to T47D. In words: Induction of autophagy in human T47D cells assessed as increase in number of lysosomes at 1 to 10 uM by LysoTracker dye based confocal microscopy. As to conditions: dose 1-10 µM. The test is classed as functional, cell-based.
For test [19], the system named is MCF7. Description: Induction of apoptosis in human MCF7 cells at 10 uM incubated for 48 hrs by TUNEL assay. In kind it is functional, cell-based.
The test system of test [20] is T47D. In words: Induction of cell cycle arrest in human T47D cells assessed as proportion of cells at G1 phase at 1 uM incubated for 24 hrs by flow cytometry (reference value: 66.6%). The test is classed as functional.

Molecules are shown by their SMILES. Active and inactive are the calls of the source. The calls are words filed in the database; no cut-off is given here.

A word on the IC50: it is the midpoint of a concentration-inhibition curve. On to `COc1ccc(N(CC(F)(F)F)S(=O)(=O)C2CC3OC2C(c2ccc(OCCN4CCCC4)cc2)=C3c2ccc(O)cc2)cc1` (stereo unspecified), for which the Activity in test [1] was 63.3%; in test [3] it was 36%; in [4] it was “Dose-Dependent Effect”; in test [5], 19.3%; in test [6], 76.8%; in test [8] it was 21.43%. Besides, the Activity in [10] is listed as 15%; in test [12], 83.71%; in test [15] it was 13%; in [16] it was 16.9%; in test [20], 71.1%. Further, the inhibition result in test [2] and in test [14] was “Active” in each case. Also, the IC50 in [4] amounted to 18.1 µM. The inhibition result in [7] was “inactive”. The result in test [9], in test [13], in test [17], in test [18] and in test [19] was Active. The result in test [11] was inactive.
